Key:
[1] = biological target: Clostridium histolycum collagenase (Hathewaya histolytica, UniProt Q46085); assay: biochemical
[2] = Anti-free radical activity (NADH/PMS superoxide, NBT reduction); type: biochemical; conditions: 1% solution in propylene glycol vs 0.1% rutin
Text: Anti-Free Radical Activity (determined according to V. Ponti, M. U. Dianzani, K. Cheeseman and T. F. Slater, Cehm--Biol interaction, 23 (1978) 281-291).
Superoxide anions are generated by the reaction of NADH (Nicotinamide Adenine Dinucleotide in a reduced form) with PMS (Phenazine Methosulphate). The superoxide anions reduce NBT (Nitro Blue Tetrazolium) to diformazan which is violet-blue in colour.
The appearance of reduced NBT is monitored over time using a spectrophotometer. The results are represented in FIG. 3a.
The anti-free radical activity of the extracts is expressed as rutin equivalent for a 50% inhibition.
Anti-Free Radical Activity Determined in vitro (V. Ponti, M. U. Dianzani, K. Cheeseman and T. F. Slater, Chem. Biol. interaction, 23, 281-291, 1978).
The anti-free radical activity of the extracts is expressed in rutin equivalent for a 50% inhibition.

[3] = Phototoxicity check
[4] = biological target: pancreatic elastase (Sus scrofa, UniProt P00772); assay: Anti-elastase activity (MeO Suc-Ala-Ala-Pro-Val-pNa substrate)
Chain of pancreatic elastase (P00772 27-266): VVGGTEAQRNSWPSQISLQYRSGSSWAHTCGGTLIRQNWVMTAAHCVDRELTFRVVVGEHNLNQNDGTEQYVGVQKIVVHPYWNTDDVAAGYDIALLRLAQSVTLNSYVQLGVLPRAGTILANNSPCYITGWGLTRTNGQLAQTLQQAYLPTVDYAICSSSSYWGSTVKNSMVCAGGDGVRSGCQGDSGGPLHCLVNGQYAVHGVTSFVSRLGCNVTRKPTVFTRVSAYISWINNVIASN

[5] = Solubility; type: physicochemical
[6] = Photostability under continuous xenon lamp radiation (half-life time of absorption); conditions: aqueous solution, compared with benzophenone 4 under the same conditions
[7] = UV light absorption spectrum; type: physicochemical
[8] = system: hyaluronidase; assay: Anti-hyaluronidase activity (N-acetylglucosamine liberated from hyaluronic acid); type: biochemical; conditions: Mangifera extract 1% dry extract; heparin Sigma 10 USP/ml
Procedure: Anti-Hyaluronidase Activity (determined according to Jose L. Reissig, Jack L. Stominger and Luis F. Leloior, 05.12.1955).
The N-acetylglucosamine liberated after 45 minutes during the reaction of the hyaluronidase with hyaluronic acid is measured using a spectrophotometer. A process for reducing the anhydrous sugars, which in acid medium are converted to furan derivatives, is used; the said sugars react with para-dimethylaminobenzaldehyde to form a coloured complex.
The activity is expressed in μg of N-acetylglucosamine formed per minute.
The anti-hyaluronidase activity is expressed as a quantity of extract for obtaining 50% inhibition.
Anti-Hyaluronidase Activity Determined in vitro (Jose L. Reissig, Jack L. Strominger and Luis F. Leloir, J. Biol.--Chem. 217, 960-966, 1953).
The anti-hyaluronidase activity is expressed as quantity of extract for obtaining 50% inhibition. The results are plotted in Figure 5b.

Chain of Clostridium histolycum collagenase (Q46085 41-1021 limits assumed): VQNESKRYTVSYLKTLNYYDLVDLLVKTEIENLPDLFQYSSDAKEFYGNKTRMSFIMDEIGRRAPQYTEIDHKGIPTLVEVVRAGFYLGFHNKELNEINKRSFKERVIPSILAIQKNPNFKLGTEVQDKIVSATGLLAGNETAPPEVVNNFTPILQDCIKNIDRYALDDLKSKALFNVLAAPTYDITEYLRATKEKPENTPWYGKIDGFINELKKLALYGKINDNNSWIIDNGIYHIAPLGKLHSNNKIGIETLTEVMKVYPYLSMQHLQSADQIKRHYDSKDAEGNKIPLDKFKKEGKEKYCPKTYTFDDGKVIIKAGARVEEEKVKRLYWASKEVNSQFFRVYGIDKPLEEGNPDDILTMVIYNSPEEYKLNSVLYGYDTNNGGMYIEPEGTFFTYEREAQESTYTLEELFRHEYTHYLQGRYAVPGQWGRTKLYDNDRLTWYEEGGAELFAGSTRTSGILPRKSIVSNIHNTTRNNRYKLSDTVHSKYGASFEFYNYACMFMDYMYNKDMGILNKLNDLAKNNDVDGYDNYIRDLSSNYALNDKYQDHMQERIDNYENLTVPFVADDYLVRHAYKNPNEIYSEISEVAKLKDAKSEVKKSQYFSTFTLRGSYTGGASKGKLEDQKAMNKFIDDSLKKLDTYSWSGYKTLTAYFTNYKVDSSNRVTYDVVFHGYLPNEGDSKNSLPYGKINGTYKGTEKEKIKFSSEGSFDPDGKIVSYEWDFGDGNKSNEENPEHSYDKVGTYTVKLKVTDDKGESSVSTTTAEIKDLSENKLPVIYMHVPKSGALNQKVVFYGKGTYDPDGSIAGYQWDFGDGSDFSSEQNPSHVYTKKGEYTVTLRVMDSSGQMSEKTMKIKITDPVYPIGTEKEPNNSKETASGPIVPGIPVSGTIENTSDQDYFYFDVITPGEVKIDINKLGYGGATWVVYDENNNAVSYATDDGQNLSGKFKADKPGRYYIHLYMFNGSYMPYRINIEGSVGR

## O=c1c2cc(O)c(O)cc2oc2cc(O)c([C@@H]3O[C@H](CO)[C@@H](O)[C@H](O)[C@H]3O)c(O)c12 [mangiferine, C-glucoside of 1,3,6,7-tetrahydroxy xanthone]
[1]
  IC50: ~118 µM
[2]
  anti-free radical activity relative to rutin reference solution: 4 times
[3]
  phototoxicity: absence of phototoxicity
[4]
  IC50: ~23.7 µM
[5]; alkaline liquids
  solubility in alkaline liquids: soluble
[5]; cold water
  solubility in cold water: very sparingly soluble
[6]
  photostability (resistance to irradiation, half-life time): equally resistant to irradiation, with a very similar half-life time
[7]; UVA zone
  UV absorption maximum corresponding to the zone of UVA rays: around 360 nm
[7]; UVB zone
  UV absorption maximum corresponding to UVB rays: around 320 nm

## heparin
[8]
  half-inhibition volume IV50 (anti-hyaluronidase): 380 µL

— patent US5824320A, “Cosmetic or pharmaceutical compositions containing, as active ingredient, mangiferine or its derivatives, in pure form or in plant extracts” (Laboratories de Biologie Vegetale Yves Rocher, priority 1994, dated 1998)
